Literature values as cited in patent publication US20220226302A1, “ENHANCEMENT OF CAMP SIGNALING AS A COMBINATION DRUG STRATEGY FOR THE TREATMENT OF DEPRESSION AND RELATED CONDITIONS” (Altos Neuroscience, Inc., priority 2021, published 2022).

Key:
PDE4 [1] = conditions: in vivo
[2] = in vivo
depression [3] = conditions: two acute treatment clinical trials, humans
depression [4] = conditions: patients with depression, small clinical trials
PDE4 [5] = tested on: PDE4

brain penetration [2]	SMILES	antidepressant effect (PDE4 [1])	pro-cognitive effect (PDE4 [1])	efficacy in clinical trials for depression (depression [3])	antidepressant-like effects in animals (β3 adrenergic receptor)	improvement in depression versus TCA medications (depression [4])	phenotype of treated mice (PDE4 [5])
can also reach the brain	O=C(Nc1c(Cl)cncc1Cl)c1ccc(OC(F)F)c(OCC2CC2)c1 [Roflumilast, roflumilast]	no evidence of an antidepressant effect	pro-cognitive effects				
brain penetrant	CCOC(=O)COc1ccc2c(c1)C[C@@H](NC[C@H](O)c1cccc(Cl)c1)CC2 [amibegron]			failed to show efficacy in two acute treatment clinical trials	promising antidepressant-like effects in animals		
	COc1ccc(C2CNC(=O)C2)cc1OC1CCCC1 (centres unmarked) [rolipram]					In none of these studies, however, did rolipram produce a greater improvement in depression than the TCA medications	antidepressant and pro-cognitive phenotypes
